The values that follow come from publication PMC6028903, “Solubility Thermodynamics of CyMe 4 -BTBP in Various Diluents Mixed with TBP” (Journal of Solution Chemistry, 2018).

By solubility is commonly meant the concentration that dissolves in the medium under given conditions.

Each structure is given as a SMILES string. Values after ≈ are worked out from the molar mass of the structure shown. Read-outs that look alike come from different tables or passages of the source. Marks after values point to notes of the source that are not given here.

For data set [1] the following is noted: literature; cited from earlier work.
Details of data set [2]: method as in earlier work. As to conditions: literature; cited from earlier work.
For data set [3] the following is noted: literature; cited from earlier work. This is another data set of the same source.
The conditions of data set [4]: 298 K; cited from earlier work.
The nature of data set [5]: Solubility of CyMe4-BTBP in GANEX solvents (70% vol diluent, 30% vol TBP), UV-VIS of the Fe2+ complex. The class given is physicochemical. As to conditions: organic solvent or mixture, thermodynamic from solid.
Data set [6] in a line: Dissolution thermodynamics of CyMe4-BTBP (van't Hoff linear fit and heat capacity calculation). Particulars: for c (288 K), calculated CyMe 4 -BTBP concentration / c (298 K), calculated CyMe 4 -BTBP concentration / c (308 K), calculated CyMe 4 -BTBP concentration: calculated from linear fits; for ΔG^0 (288 K) / ΔG^0 (298 K) / ΔG^0 (308 K): from linear fits; for ΔH^0 / ΔS^0: calculated using ΔCp; for ΔH^0 linear / ΔS^0 linear: linear fit. In kind it is physicochemical.

The conditions of data set [7]: 10 mmol/L CyMe4-BTBP, cited from earlier work.
On the set-up of data set [8]: method as in doi:10.1080/07366299.2011.539462. As to conditions: cited from earlier work.
Data set [9] in a line: Surface tension against air (du Noüy ring method). In kind it is physicochemical. As to conditions: 294 K, 0.1 MPa. On the procedure:
(§1) The density, ρ , and surface tension, γ , against air (using the du Noüy ring method) for the different solvents was measured at room temperature (293–295 K) using a tensiometer (Sigma 700, Attension). The surface tensiometer ring was lowered into the organic phase until it was totally immersed. The tensiometer then measured the surface tension automatically by slowly pulling out the ring of the organic phase and measuring the force required to detach the ring from the organic surface. The density was measured using the same tensiometer and a calibrated density probe.

A short description of data set [10]: Density (tensiometer with density probe). As to conditions: 294 K, 0.1 MPa. The class given is physicochemical. On the procedure:
as §1

Setting [11] is: Cyclohex./TBP b, pre-equilibrated with HNO3.
The mark [12] stands for this setting: Cyclohex./TBP b, pre-equilibrated.
Where [13] appears, read: FS-13/TBP b, pre-equilibrated with HNO3.
[14] abbreviates: Octanol/TBP b, pre-equilibrated with HNO3.
The mark [15] stands for this setting: Octanol/TBP b, pre-equilibrated.

Regarding `CCCCCCCCO` [1-Octanol, 1-octanol], the Surface tension in data set [1] is on record as 27.2^a mN · m ^-1. Besides, the Density in data set [2] is reported as 0.83^b g · cm ^-3. Further, the Flash point in data set [3] is given as 358 K^a. In addition, in data set [4], the Solvent in water is listed as 0.0538^b wt% and the Water in solvent is given as 4.2^c wt%.
Take `CC1(C)CCC(C)(C)c2nc(-c3cccc(-c4cccc(-c5nnc6c(n5)C(C)(C)CCC6(C)C)n4)n3)nnc21` [CyMe 4 -BTBP, 6,6′-bis(5,5,8,8-tetramethyl-5,6,7,8-tetrahydrobenzo[1,2,4]triazin-3-yl)[2,2′]bipyridine]: the solubility at 3 days in [5] (GANEX solvent 1-octanol/TBP, 25 °C, Octanol/TBP, 70% vol diluent and 30% vol TBP, 298 K, read-out: CyMe 4 -BTBP solubility at 298 K) stood at 13 mM (≈ 6.95 mg/mL); in [5] (GANEX solvent FS-13/TBP, 25 °C, FS-13/TBP, 70% vol diluent and 30% vol TBP, 298 K, read-out: CyMe 4 -BTBP solubility at 298 K), 130 mM (≈ 69.5 mg/mL); in data set [5] (GANEX solvent FS-13/TBP, 70% vol FS-13 and 30% vol TBP, 4 mol/L NaCl in Milli-Q water instead of nitric acid, single sample, read-out: CyMe 4 -BTBP solubility) it was 20 mM (≈ 10.7 mg/mL); in data set [5] (GANEX solvent FS-13/TBP, 70% vol FS-13 and 30% vol TBP, 4 mol/L hydrochloric acid instead of nitric acid, single sample, read-out: CyMe 4 -BTBP solubility), 30 mM (≈ 16 mg/mL); in data set [5] (GANEX solvent FS-13/TBP, 70% vol FS-13 and 30% vol TBP, Milli-Q water instead of nitric acid, single sample, read-out: CyMe 4 -BTBP solubility) it was 15 mM (≈ 8.02 mg/mL); in data set [5] (GANEX solvent cyclohexanone/TBP, 25 °C, Cyclohex./TBP, 70% vol diluent and 30% vol TBP, 298 K, read-out: CyMe 4 -BTBP solubility at 298 K) it was 180 mM (≈ 96.2 mg/mL). Besides, the “c (288 K), calculated CyMe 4 -BTBP concentration” value in [6] (Cyclohex./TBP a, pristine) is 13 mmol · L ^-1; in data set [6] (setting [12]), 160 mmol · L ^-1; in [6] (FS-13/TBP a, pristine), 14 mmol · L ^-1; in [6] (FS-13/TBP b, pre-equilibrated), 90 mmol · L ^-1; in [6] (Octanol/TBP a, pristine), 3.4 mmol · L ^-1; in data set [6] (setting [15]), 11 mmol · L ^-1. Besides, the “ΔG^0 (288 K)” value is recorded as 10.5 kJ · mol ^-1 in [6] (Cyclohex./TBP a, pristine); 4.4 kJ · mol ^-1 in [6] (setting [12]); 10.3 kJ · mol ^-1 in [6] (FS-13/TBP a, pristine); 5.8 kJ · mol ^-1 in data set [6] (FS-13/TBP b, pre-equilibrated); 13.6 kJ · mol ^-1 in [6] (Octanol/TBP a, pristine); 10.9 kJ · mol ^-1 in [6] (setting [15]). Further, the “c (298 K), calculated CyMe 4 -BTBP concentration” value in data set [6] (Cyclohex./TBP a, pristine) is 27 mmol · L ^-1; in [6] (setting [12]) it was 190 mmol · L ^-1; in data set [6] (FS-13/TBP a, pristine), 16 mmol · L ^-1; in [6] (FS-13/TBP b, pre-equilibrated), 130 mmol · L ^-1; in data set [6] (Octanol/TBP a, pristine), 4.3 mmol · L ^-1; in [6] (setting [15]) it was 14 mmol · L ^-1. Moreover, the “ΔG^0 (298 K)” value in [6] (Cyclohex./TBP a, pristine) is recorded as 8.9 kJ · mol ^-1; in data set [6] (setting [12]), 4.1 kJ · mol ^-1; in [6] (FS-13/TBP a, pristine), 10.3 kJ · mol ^-1; in data set [6] (FS-13/TBP b, pre-equilibrated) it was 5.1 kJ · mol ^-1; in data set [6] (Octanol/TBP a, pristine), 13.4 kJ · mol ^-1; in data set [6] (setting [15]), 10.6 kJ · mol ^-1. Further, the “c (308 K), calculated CyMe 4 -BTBP concentration” value is on record as 56 mmol · L ^-1 in data set [6] (Cyclohex./TBP a, pristine); 230 mmol · L ^-1 in data set [6] (setting [12]); 17 mmol · L ^-1 in data set [6] (FS-13/TBP a, pristine); 180 mmol · L ^-1 in data set [6] (FS-13/TBP b, pre-equilibrated); 5.5 mmol · L ^-1 in data set [6] (Octanol/TBP a, pristine); 18 mmol · L ^-1 in data set [6] (setting [15]). Besides, the “ΔG^0 (308 K)” value was 7.4 kJ · mol ^-1 in [6] (Cyclohex./TBP a, pristine); 3.8 kJ · mol ^-1 in data set [6] (setting [12]); 10.4 kJ · mol ^-1 in data set [6] (FS-13/TBP a, pristine); 4.4 kJ · mol ^-1 in data set [6] (FS-13/TBP b, pre-equilibrated); 13.3 kJ · mol ^-1 in data set [6] (Octanol/TBP a, pristine); 10.2 kJ · mol ^-1 in [6] (setting [15]). The “ΔH^0” value in data set [6] (Cyclohex./TBP a, pristine) is on record as 53 kJ · mol ^-1; in data set [6] (setting [11]), 15 kJ · mol ^-1; in [6] (FS-13/TBP a, pristine, 288, 298, 308 K) it was 8 kJ · mol ^-1; in [6] (setting [13]) it was 27 kJ · mol ^-1; in data set [6] (Octanol/TBP a, pristine) it was 17 kJ · mol ^-1; in [6] (setting [14]) it was 21 kJ · mol ^-1. Also, the “ΔS^0” value is reported as 150 J · mol ^-1· K ^-1 in data set [6] (Cyclohex./TBP a, pristine); 38 J · mol ^-1· K ^-1 in [6] (setting [11]); 72 J · mol ^-1· K ^-1 in data set [6] (setting [13]); 14 J · mol ^-1· K ^-1 in data set [6] (Octanol/TBP a, pristine); 33 J · mol ^-1· K ^-1 in data set [6] (setting [14]). In addition, the “ΔH^0 linear” value in data set [6] (Cyclohex./TBP a, pristine) was 54.4 ± 2.6 kJ · mol ^-1; in data set [6] (setting [11]), 13.3 ± 0.5 kJ · mol ^-1; in data set [6] (FS-13/TBP a, pristine), 8.3 ± 0.6 kJ · mol ^-1; in [6] (setting [13]), 26.6 ± 0.3 kJ · mol ^-1; in data set [6] (Octanol/TBP a, pristine), 18.0 ± 1.1 kJ · mol ^-1; in [6] (setting [14]), 20.0 ± 1.0 kJ · mol ^-1. Also, the “ΔS^0 linear” value is on record as 152.4 ± 1.9 J · mol ^-1· K ^-1 in data set [6] (Cyclohex./TBP a, pristine); 30.8 ± 0.3 J · mol ^-1· K ^-1 in data set [6] (setting [11]); 72.1 ± 0.2 J · mol ^-1· K ^-1 in data set [6] (setting [13]); 15.0 ± 0.8 J · mol ^-1· K ^-1 in [6] (Octanol/TBP a, pristine); 31.6 ± 0.7 J · mol ^-1· K ^-1 in [6] (setting [14]). The ΔCp is given as 1.4 kJ · mol ^-1· K ^-1 in data set [6] (setting [11]); 1.3 kJ · mol ^-1· K ^-1 in [6] (FS-13/TBP a, pristine); 2.3 kJ · mol ^-1· K ^-1 in [6] (setting [14]). Moreover, the “Americium distribution ratio at 298 K using 10 mmol · L ^-1 CyMe 4 -BTBP” value is on record as 160^b in data set [7] (Cyclohex./TBP), 30^a in data set [7] (FS-13/TBP) and 30^c in data set [7] (Octanol/TBP). For the same compound, the “Solubility in a nitric acid aqueous phase” value in [8] was “not soluble above the detection limit”.
As for `O=C1CCCCC1` [Cyclohexanone, cyclohexanone], the Surface tension in data set [1] was 34.4^a mN · m ^-1. Further, the Density in data set [2] was 0.95^b g · cm ^-3. Moreover, the Flash point in data set [3] was 317 K^a. Also, in [4], the Solvent in water was 2.3^b wt% and the Water in solvent was 8.0^b wt%.
With `O=S(=O)(c1ccccc1)C(F)(F)F` [FS-13, phenyl trifluoromethyl sulfone], in data set [9], the Surface tension was 26.6 ± 0.01 mN · m ^-1. Also, the Density in [10] is on record as 1.40 ± 0.01 g · cm ^-3. The Flash point in data set [3] is 395 K^d.
